Results: patent US10905782B2, “Compositions for enhancing transport of molecules into cells” (priority 2003, dated 2021)

What was measured:
[1] = tested on: 705 splice site (luciferase gene interrupted by a human β-globin intron mutated at nucleotide 705); assay: pLuc/705 splice correction assay: luciferase production in HeLa pLuc/705 cells; type: cell-based; conditions: splice-correction assay monitored over time
Method: The data described below was obtained by targeting a β-globin splice correction sequence fused to luciferase.
Other cell lines were obtained from ATCC (Manassas, Va.). […] All assays were carried out with exponentially growing cells in culture media containing 10% fetal bovine serum (FBS) unless otherwise specified.
This assay measures the ability of steric blocking oligomers to enter cells and nuclei, block incorrect splicing of pre-mRNA, and thus cause expression of a reporter gene. It avoids the confusion of cytotoxicity with activity that can affect down-regulation assays, as cells must be able to carry out RNA processing and translation to produce a signal. Because oligomers must enter cells and cell nuclei to produce a signal in the assay, it is very useful for measuring uptake and effectiveness of delivery moieties.
The time course of the uptake of various transporter-PMO-fluorescein conjugates, as described above, in HeLa pLuc/705 cells was studied by fluorescence spectroscopy. Experiments were generally run in triplicate. According to the general procedure, culture medium containing the test substance at a specified concentration was added to HeLa pLuc/705 cells plated in a 48-well plate. After incubation, at each time point, the cells were washed with PBS three times, and the cell lysate was collected as described under “Fluorometry”, above. The amount of functional luciferase produced was determined by mixing 30 μl of cell lysate and 50 μl of Luciferase Assay Reagent (LAR) (Promega, Wis.) and measuring the light production using a Flx 800 microplate fluorescence/luminescence reader (Bio-tek, Vermont). The relative light units were normalized to μg of protein determined by the bicinchoninic acid (BCA) method, following the manufacturer's procedure (Pierce, Ill.).

[2] = tested on: HeLa pLuc705 derived from HeLa S3, HeLa, NIH3T3, and Jurkat; assay: Cellular uptake by fluorescent microscopy in live cells; type: cell-based
Method: HeLa pLuc/705 (Kang, Cho et al. 1998) is a HeLa S3 cell line stably transfected with a plasmid carrying the luciferase coding sequence interrupted by a mutated human β-globin intron 2 (Gene Tools, Philomath, Oreg.). Other cell lines were obtained from ATCC (Manassas, Va.). The PMO's were 3′-labeled with fluorescein as described in Example 1. To avoid artifacts, all fluorescent images were taken from live cells, and no fixative agent or mounting media were used.
Cells were plated onto a 48-well plate. The next day the conditioned medium was removed and the test substances in fresh medium were added to the wells. After incubation, the cells were washed with phosphate-buffered saline (PBS) three times and visualized directly in the culture medium with a Nikon Diaphot 300 inverted microscope. Images were captured with an Olympus digital camera connected to a computer using MagnaFire software (Optronics, Goleta, Calif.).

[3] = tested on: HeLa pLuc705 cells; assay: Fluorometry: association (adsorption) of fluorescein-labeled conjugate with cells; type: cell-based, human
Method: HeLa pLuc/705 cells plated in a 48 well plate were treated with medium containing test substance. After incubation, cells were washed with PBS three times.
To measure the sum of membrane-bound and internalized fluorescence, cells were lysed directly in the wells by addition of 100 μl of cell lysis buffer (Promega, Madison, Wis.) to each well. Cell lysates were collected. The total fluorescence was determined by mixing 20 μl of cell lysate and 80 μl of 0.1 M Na2CO3 (pH 11) and measuring with an Flx 800 microplate fluorescence-luminescence reader with excitation at 485 nm and emission at 524 nm.
To measure internalized conjugate, the membrane-bound conjugate was removed by trypsinization, as follows. Trypsin (100 μl, 10%, Hyclone, Logan, Utah) was added to each well and incubated for 6 minutes at 37° C., followed by addition of 300 μl of culture media. The cells were spun down and washed with PBS, then lysed with 100 μl cell lysis buffer. The fluorescence of the cell lysate was measured as described above.

[4] = tested on: trypsin; assay: Degradation of conjugate by trypsin; type: in vitro ADME; conditions: data not shown

## R9F2C-PMO: covalent conjugate of PMO 705 and transport peptide R9F2 via cysteine; fluorescein-labeled in uptake studies (chain RRRRRRRRRFFC; antisense cctcttacctcagttaca; cysteine linkage; PMO; fluorescein; synthetic transport peptide; synthetic oligomer)
[1]
  incubation time after which luciferase was produced: 120 min
[2]; HeLa S3 cells
  pattern of fluorescence: less intense cytosolic diffuse fluorescence
[2]; HeLa cells
  pattern of fluorescence: mostly diffused fluorescence
[2]; HeLa, NIH3T3 or HeLa pLuc/705 cells, 20 minutes treatment, DHE nuclear stain
  location of fluorescence in cells: Diffuse green fluorescence was seen in both cytoplasm and nucleus
[2]; Jurkat cells
  pattern of fluorescence: lowest level of fluorescence
[2]; NIH3T3 cells
  pattern of fluorescence: very bright and diffused cytosolic and nuclear fluorescence
[2]; all four cell lines, live cells
  cells in which fluorescence was observed: 100%
[3]; 0.1 to 5 μM, 70 minutes
  fluorescence of cells incubated at 37° C. compared with 17° C.: similar
[3]; HeLa pLuc705 cells, 1 μM, 900 minute study period
  time at which cell fluorescence reached maximum intensity: 30 to 45 min
[3]; increase between 0.1-1 μM, not between 1-5 μM
  adsorption with increasing concentration: saturable
[4]
  sensitivity to degradation by trypsin: sensitive to degradation by trypsin
